Converted amounts (≈) assume the structure as drawn.
How the values were obtained:
Lck Kinase = target: T1, Lck Kinase (Homo sapiens, UniProt P06239); assay: CEREP kinase inhibition; assay type: biochemical
T1 construct: purchased Eurofins Cerep

L-Type Ca (verapamil) = assay: CEREP ion channel-binding; conditions: 30 µM
[1] = test system: SARS-CoV-2 strain USA-WA1/2020; assay: dNHBE (human airway epithelial) cell infection model; assay type: cell-based; conditions: Severe acute respiratory syndrome coronavirus 2, Epithelial cell; dNHBE (human airway epithelial) cells; plaque assay 3 dpi
in vitro [2] = conditions: both, human, plasma
NMDA Receptor = assay: CEREP ion channel-binding; conditions: 30 µM
in vitro [3] = conditions: mouse, plasma
Monkey pharmacokinetics = assay type: in vivo; conditions: plasma, Male Cynomolgus Monkey, 1.0 mg/kg iv, solution, mean n=2
Description: from Vital River (Beijing, China) and were typically 7-9 weeks of age at the time of dosing.
During the pharmacokinetic studies all animals were housed individually. Access to food and water was provided ad libitum (i.e., subjects were dosed in the fed state). In the instances where oral (po) dose was administered in the fed state, with ad libitum access to food and water. Compounds were administered intravenously (iv) via the tail vein (n = 2) dosed as a solution (1 mg/kg, 3 ml/kg) or via oral gavage as a solution (10 mg/kg, 10 ml/kg). Dosing solutions were prepared immediately before dosing. The composition of each dosing vehicle […]
Serial blood samples were collected via the jugular vein cannula at predetermined timepoints after dosing. Animals were monitored for pain or distress throughout the study, with at least daily monitoring during normal husbandry prior to study start. At the completion of the study, animals were euthanized by overdose of inhaled carbon dioxide. Blood samples were collected into tubes containing K2EDTA and stored on ice until centrifugation to obtain plasma, which was stored frozen at - 20 °C or lower.
Dog pharmacokinetic studies were done at Pfizer (Groton, CT). All procedures performed on beagle dogs were in accordance with regulations and established guidelines and were reviewed and approved by an Institutional Animal Care and Use Committee through an ethical review process. Male Beagle dogs were purchased from Marshall Bioresources (North Rose, NY); subjects 3 years of age were used in pharmacokinetics studies. For each study (n=2), compounds were dosed iv by cephalic vein as a solution (0.5 mg/kg, 1 mL/kg) or via oral gavage as a suspension (3 mg/kg, 5 mL/kg). In the instances where oral (po) dose was administered in the fed state, dogs were fed a couple hours before dosing. In the instances where the IV dose was administered in the fasted state, dogs were fasted over night and fed 4 hours post dose. Subjects were monitored for pain or distress throughout the study followed by at least daily monitoring while off study. The iv dosing vehicle was optimized such that the compounds were in solution and stable for at least 24 h. Serial blood samples were collected via the jugular vein at predefined time points post-dose. […]
Monkey pharmacokinetic studies were conducted at Pfizer (Groton, CT). […] Subjects were monitored for pain or distress throughout the study followed by at least daily monitoring while off study. […]
Plasma samples were processed using protein precipitation with 50:50 acetonitrile: methanol containing terfenadine (5 ng/ml) as an internal standard followed by quantitation against a standard curve (0.1-1000 ng/ml) prepared in blank plasma. Quantitation of analyte in plasma samples was done using LC-MS/MS. […]

NMDA Receptor (PCP site) = assay: CEREP ion channel-binding; conditions: 30 µM
[4] = test system: GABAa (benzodiazepine Site); assay: CEREP ion channel-binding; conditions: 30 µM
[5] = test system: Nicotinic Ach Receptor (Neuronal); assay: CEREP ion channel-binding; conditions: 30 µM
LogD = assay type: physicochemical
EGFR Kinase = target: T2, EGFR Kinase (Homo sapiens, UniProt P00533); assay: CEREP kinase inhibition; assay type: biochemical
T2 construct: purchased Eurofins Cerep

GABA Transporter = assay: CEREP transporters-binding; conditions: 30 µM
Thermodynamic solubility = assay type: physicochemical; conditions: pH 7.4, aqueous buffer, thermodynamic from solid
hCoV-OC43_PLpro2 = hCoV-OC43_PLpro2 (Human coronavirus OC43, UniProt P0C6X6); assay: biochemical; set-up: species or system OC43-CoV
Monoamine Oxidase = assay: CEREP enzyme inhibition; assay type: biochemical; conditions: 30 µM
CYP2C8 = CYP2C8 (Homo sapiens, UniProt P10632); assay: biochemical
in vitro [6] = conditions: male, Wistar-Hannover, rat, plasma
[7] = target: T3, Glucocorticoid Receptor (Binding) (Homo sapiens, UniProt P04150); assay: CEREP NHR-binding
T3 construct: purchased Eurofins Cerep

Sodium (Site 2) = assay: CEREP ion channel-binding; conditions: 30 µM
Human Cathepsin S = target: T4, Human Cathepsin S (Homo sapiens, UniProt P25774); assay: biochemical
T4 construct: assay run at Reaction Biology Corporation

Adenosine A2a = target: T5, Adenosine A2a (Homo sapiens, UniProt P29274); assay: CEREP functional agonism; assay type: cell-based; conditions: 30 µM
T5 construct: purchased Eurofins Cerep

Human Elastase = target: T6, Human Elastase (Homo sapiens, UniProt P08246); assay: biochemical
T6 construct: Reaction Biology Corporation (ran the assay as a service)

PDE4D2 = target: T7, PDE4D2 (Homo sapiens, UniProt Q08499); assay: CEREP enzyme inhibition; assay type: biochemical
T7 construct: purchased Eurofins Cerep
T7 sequence (Q08499 303-809): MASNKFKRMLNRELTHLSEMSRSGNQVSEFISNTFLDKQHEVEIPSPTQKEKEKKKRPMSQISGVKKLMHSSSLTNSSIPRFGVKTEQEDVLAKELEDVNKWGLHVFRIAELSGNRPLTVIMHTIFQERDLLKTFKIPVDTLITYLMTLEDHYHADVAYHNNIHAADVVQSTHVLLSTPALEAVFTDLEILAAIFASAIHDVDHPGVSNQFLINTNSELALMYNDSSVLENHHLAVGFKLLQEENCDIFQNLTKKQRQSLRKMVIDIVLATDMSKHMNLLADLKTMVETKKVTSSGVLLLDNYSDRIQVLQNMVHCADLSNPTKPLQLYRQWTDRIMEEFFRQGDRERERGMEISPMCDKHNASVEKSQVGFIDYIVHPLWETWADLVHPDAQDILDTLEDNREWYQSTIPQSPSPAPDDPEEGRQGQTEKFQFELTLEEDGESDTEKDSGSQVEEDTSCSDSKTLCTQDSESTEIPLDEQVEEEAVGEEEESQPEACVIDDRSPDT

Chain of hCoV-OC43_PLpro2 (P0C6X6 1631-1892): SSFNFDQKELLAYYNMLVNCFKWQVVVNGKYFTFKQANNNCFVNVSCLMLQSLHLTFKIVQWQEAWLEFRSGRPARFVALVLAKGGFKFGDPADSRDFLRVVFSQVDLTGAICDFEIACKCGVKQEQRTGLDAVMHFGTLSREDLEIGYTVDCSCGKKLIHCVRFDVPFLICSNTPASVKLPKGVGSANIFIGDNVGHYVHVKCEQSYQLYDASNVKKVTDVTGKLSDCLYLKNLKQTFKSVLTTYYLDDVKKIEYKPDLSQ
T3 sequence (P04150 whole entry): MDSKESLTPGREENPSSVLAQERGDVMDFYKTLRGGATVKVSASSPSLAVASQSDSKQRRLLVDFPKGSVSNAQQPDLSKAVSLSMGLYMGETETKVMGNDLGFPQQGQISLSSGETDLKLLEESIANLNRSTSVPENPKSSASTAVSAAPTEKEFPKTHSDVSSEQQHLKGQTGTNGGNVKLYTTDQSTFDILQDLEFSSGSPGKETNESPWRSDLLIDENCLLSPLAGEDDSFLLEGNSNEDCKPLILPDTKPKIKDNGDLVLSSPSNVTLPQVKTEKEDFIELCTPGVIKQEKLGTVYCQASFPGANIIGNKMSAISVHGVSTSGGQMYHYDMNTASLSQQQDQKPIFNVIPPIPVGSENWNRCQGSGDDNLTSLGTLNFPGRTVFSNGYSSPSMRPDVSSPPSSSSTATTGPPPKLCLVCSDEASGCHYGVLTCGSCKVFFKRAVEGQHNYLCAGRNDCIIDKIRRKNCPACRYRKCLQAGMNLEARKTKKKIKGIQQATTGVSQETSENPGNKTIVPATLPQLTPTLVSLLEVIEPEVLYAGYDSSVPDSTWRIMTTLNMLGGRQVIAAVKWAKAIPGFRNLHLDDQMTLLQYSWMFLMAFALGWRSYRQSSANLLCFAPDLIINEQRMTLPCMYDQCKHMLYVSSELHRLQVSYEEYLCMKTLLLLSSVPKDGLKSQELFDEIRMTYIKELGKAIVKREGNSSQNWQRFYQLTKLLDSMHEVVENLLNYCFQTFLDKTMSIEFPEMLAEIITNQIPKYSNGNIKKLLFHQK
T1 sequence (P06239 whole entry): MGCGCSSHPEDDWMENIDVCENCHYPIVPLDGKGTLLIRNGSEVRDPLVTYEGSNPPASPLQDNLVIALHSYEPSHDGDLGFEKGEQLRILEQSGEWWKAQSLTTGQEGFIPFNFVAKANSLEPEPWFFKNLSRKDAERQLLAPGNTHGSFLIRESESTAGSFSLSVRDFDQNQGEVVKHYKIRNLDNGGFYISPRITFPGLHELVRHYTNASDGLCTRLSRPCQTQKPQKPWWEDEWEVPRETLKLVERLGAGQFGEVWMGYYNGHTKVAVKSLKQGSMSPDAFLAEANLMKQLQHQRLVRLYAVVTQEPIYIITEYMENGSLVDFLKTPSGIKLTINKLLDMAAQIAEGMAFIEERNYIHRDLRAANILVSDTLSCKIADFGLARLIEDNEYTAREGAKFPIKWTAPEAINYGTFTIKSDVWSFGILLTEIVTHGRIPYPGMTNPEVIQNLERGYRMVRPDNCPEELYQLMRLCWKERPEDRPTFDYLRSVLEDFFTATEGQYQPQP
T2 sequence (P00533 25-1210): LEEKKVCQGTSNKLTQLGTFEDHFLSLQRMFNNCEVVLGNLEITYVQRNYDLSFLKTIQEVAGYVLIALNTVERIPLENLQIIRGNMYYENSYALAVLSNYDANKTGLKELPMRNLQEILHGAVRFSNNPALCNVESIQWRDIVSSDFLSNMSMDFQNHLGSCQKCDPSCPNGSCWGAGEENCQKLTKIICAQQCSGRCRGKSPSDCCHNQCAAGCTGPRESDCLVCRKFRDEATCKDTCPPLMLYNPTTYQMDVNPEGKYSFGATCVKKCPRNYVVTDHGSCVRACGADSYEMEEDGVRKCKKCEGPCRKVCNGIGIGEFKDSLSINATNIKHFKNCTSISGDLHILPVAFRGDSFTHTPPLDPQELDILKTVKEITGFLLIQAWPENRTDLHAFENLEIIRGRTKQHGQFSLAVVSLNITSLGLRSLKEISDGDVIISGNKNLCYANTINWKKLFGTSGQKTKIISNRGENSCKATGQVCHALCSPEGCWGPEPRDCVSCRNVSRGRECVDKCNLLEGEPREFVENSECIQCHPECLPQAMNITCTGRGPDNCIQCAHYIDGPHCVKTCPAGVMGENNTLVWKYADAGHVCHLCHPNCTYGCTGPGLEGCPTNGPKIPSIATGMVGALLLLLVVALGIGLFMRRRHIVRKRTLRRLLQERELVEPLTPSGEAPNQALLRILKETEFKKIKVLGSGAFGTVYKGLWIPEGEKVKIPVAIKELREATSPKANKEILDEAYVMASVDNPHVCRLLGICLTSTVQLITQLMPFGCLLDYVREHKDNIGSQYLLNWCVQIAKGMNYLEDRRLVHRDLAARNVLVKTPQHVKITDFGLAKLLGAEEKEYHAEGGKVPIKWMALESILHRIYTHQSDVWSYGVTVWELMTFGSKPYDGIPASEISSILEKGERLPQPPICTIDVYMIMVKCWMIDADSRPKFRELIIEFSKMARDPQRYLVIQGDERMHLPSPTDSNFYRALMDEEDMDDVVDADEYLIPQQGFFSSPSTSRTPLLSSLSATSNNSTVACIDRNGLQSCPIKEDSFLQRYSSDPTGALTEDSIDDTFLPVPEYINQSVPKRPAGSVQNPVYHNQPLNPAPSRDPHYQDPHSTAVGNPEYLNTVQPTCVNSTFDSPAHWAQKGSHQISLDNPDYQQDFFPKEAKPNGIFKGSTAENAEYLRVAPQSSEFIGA
Chain of CYP2C8 (P10632 whole entry): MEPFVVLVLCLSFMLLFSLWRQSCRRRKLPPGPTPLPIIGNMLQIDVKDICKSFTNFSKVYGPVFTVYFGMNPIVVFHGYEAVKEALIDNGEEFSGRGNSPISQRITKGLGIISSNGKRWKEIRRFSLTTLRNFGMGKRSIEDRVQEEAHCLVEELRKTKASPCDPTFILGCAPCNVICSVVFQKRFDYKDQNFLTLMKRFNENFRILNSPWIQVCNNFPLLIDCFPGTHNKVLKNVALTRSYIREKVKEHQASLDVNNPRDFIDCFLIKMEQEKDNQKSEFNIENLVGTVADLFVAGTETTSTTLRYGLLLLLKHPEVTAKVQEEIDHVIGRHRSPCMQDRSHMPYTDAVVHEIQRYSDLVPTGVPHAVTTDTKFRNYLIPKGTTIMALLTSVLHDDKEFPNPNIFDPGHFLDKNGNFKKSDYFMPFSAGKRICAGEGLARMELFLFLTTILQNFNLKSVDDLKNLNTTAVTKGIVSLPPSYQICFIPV
T4 sequence (P25774 115-331): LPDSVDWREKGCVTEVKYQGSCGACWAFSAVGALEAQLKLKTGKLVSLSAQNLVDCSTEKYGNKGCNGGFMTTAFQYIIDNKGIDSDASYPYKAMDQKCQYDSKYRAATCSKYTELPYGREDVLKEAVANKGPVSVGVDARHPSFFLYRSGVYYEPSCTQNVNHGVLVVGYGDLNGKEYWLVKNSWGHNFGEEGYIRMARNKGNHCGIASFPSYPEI
T6 sequence (P08246 30-267): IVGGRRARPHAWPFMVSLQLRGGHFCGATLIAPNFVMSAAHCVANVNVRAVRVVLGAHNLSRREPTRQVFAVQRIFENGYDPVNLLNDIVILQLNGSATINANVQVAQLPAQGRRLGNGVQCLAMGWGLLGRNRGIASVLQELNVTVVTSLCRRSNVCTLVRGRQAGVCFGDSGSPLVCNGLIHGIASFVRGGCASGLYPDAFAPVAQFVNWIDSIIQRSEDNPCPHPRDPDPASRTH
T5 sequence (P29274 whole entry): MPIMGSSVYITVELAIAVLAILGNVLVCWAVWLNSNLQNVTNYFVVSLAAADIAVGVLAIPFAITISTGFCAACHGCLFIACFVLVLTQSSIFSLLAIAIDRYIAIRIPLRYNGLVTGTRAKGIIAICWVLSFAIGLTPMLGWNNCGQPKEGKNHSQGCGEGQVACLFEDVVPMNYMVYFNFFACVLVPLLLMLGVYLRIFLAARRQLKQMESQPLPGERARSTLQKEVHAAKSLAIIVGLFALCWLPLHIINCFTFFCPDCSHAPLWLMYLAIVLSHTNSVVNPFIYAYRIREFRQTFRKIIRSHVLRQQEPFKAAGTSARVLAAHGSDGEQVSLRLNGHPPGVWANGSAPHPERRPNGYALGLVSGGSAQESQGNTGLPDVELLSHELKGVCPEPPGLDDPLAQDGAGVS

**Q.** Which inhibition at 30 µM (Lck Kinase) does the source give for `Cc1ccc(N2CCN(C)CC2)cc1C(=O)NC1(c2cc(-c3cnn(C)c3)nc3ccccc23)CC1` [Compound 4] here?
**A.** -1%

**Q.** What about the “% inhibition” value (L-Type Ca (verapamil)) of the same molecule?
**A.** -19%

**Q.** What about the EC50 [1] of the same molecule?
**A.** 0.0139 µM

**Q.** What about the EC90 [1] of the same molecule?
**A.** 0.0567 µM

**Q.** And the fraction unbound (in vitro [2])?
**A.** 0.109

**Q.** And the “% inhibition” value (NMDA Receptor)?
**A.** -2%

**Q.** And the fraction unbound (in vitro [3])?
**A.** 0.093

**Q.** And the AUC(0-inf) (Monkey pharmacokinetics)?
**A.** 1600 ng·h/mL

**Q.** What about the half-life (Monkey pharmacokinetics) of the same molecule?
**A.** 3.56 h

**Q.** What about the clearance (Monkey pharmacokinetics; read-out: CLp) of the same molecule?
**A.** 10.7 mL/min/kg

**Q.** And the Vd (Monkey pharmacokinetics; read-out: Vdss)?
**A.** 2.09 L/kg

**Q.** What about the “% inhibition” value (NMDA Receptor (PCP site)) of the same molecule?
**A.** 14%

**Q.** What about the “% inhibition” value [4] of the same molecule?
**A.** 7%

**Q.** And the “% inhibition” value [5]?
**A.** -6%

**Q.** What about the logD (LogD) of the same molecule?
**A.** 2.5

**Q.** What about the inhibition at 30 µM (EGFR Kinase) of the same molecule?
**A.** 9%

**Q.** And the “% inhibition” value (GABA Transporter)?
**A.** -4%

**Q.** And the solubility thermodynamic (Thermodynamic solubility)?
**A.** 541 µM (≈ 260 µg/mL)

**Q.** What about the Ki (hCoV-OC43_PLpro2) of the same molecule?
**A.** > 10 µM

**Q.** What about the “activity on OC43 PL^pro” value (hCoV-OC43_PLpro2) of the same molecule?
**A.** nearly inactive

**Q.** What about the “% inhibition” value (Monoamine Oxidase) of the same molecule?
**A.** 16%

**Q.** What about the IC50 (CYP2C8) of the same molecule?
**A.** 76.1 µM

**Q.** And the fraction unbound (in vitro [6])?
**A.** 0.241

**Q.** What about the inhibition at 30 µM [7] of the same molecule?
**A.** 2%

**Q.** What about the “% inhibition” value (Sodium (Site 2)) of the same molecule?
**A.** -15%

**Q.** What about the IC50 (Human Cathepsin S) of the same molecule?
**A.** > 100 µM

**Q.** What about the “% response” value (Adenosine A2a) of the same molecule?
**A.** 0%

**Q.** What about the IC50 (Human Elastase) of the same molecule?
**A.** > 100 µM

**Q.** What about the inhibition at 30 µM (PDE4D2) of the same molecule?
**A.** 20%

Reference: paper PMC11364104, “Discovery of SARS-CoV-2 papain-like protease (PL^pro) inhibitors with efficacy in a murine infection model” (Science Advances, 2024)
